This is an account of results in publication PMC2229623 (The Journal of General Physiology, 2004).

pIC50, pKi: −log10 of the molar value.

Series [1] concerns the target T1, CFTR (Homo sapiens, UniProt P13569). Description: Apical Cl− current in CFTR-expressing FRT cells. Format: cell-based. Particulars: for % inhibition at 50 μM: apical membrane Cl− current, FRT cells; for pKi: Ki is compound concentration giving 50% inhibition of apical membrane Cl− current in CFTR-expressing FRT cells.
Series [2] concerns the target T1, CFTR. As to conditions: read-out: concentration giving 50% inhibition of CFTR Cl− channel function; intact cells, depending on cell type and membrane potential; ref Ma et al., 2002a; Taddei et al., 2004; cited from earlier work.
The test system of series [3] is CFTR. It counts as in vivo. Particulars: 100 μM in all solutions; mice.
The target of series [4] is MDR-1 (Homo sapiens, UniProt P08183). Description: Rhodamine 123 uptake in cells overexpressing MDR-1. It counts as cell-based. As to conditions: 100 μM.
Chain of MDR-1 (P08183 whole entry): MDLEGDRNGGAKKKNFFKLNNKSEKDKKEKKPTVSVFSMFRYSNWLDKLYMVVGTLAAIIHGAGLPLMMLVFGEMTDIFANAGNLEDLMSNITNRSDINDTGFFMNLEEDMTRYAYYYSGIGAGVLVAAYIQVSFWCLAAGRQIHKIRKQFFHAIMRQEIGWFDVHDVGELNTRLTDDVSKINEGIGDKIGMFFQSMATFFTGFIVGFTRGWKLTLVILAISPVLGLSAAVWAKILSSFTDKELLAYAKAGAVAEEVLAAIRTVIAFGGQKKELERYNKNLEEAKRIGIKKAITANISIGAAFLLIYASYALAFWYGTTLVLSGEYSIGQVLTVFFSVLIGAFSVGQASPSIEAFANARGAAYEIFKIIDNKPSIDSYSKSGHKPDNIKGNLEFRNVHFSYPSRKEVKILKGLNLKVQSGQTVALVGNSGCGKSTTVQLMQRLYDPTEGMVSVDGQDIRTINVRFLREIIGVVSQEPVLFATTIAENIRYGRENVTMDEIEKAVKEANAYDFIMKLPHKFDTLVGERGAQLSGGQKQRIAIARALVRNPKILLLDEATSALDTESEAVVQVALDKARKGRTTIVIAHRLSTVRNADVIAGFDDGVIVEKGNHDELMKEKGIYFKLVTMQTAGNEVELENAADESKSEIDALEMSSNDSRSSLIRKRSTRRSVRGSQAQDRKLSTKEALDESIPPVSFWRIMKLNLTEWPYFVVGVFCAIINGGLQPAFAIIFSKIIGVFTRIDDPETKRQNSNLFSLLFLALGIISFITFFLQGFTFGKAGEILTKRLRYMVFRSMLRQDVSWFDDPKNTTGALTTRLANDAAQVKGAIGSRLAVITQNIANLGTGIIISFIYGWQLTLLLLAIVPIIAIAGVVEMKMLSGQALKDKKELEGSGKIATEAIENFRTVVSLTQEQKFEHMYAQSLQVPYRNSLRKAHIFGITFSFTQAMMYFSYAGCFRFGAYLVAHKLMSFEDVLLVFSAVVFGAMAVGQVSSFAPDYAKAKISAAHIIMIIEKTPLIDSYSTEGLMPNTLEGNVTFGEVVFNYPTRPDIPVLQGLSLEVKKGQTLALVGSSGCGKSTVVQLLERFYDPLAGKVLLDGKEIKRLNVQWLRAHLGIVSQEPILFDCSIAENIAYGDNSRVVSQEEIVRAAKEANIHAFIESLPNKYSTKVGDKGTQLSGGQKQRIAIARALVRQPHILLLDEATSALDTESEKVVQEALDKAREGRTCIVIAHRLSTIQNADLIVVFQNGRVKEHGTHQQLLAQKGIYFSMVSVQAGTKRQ

T1 sequence (P13569 whole entry): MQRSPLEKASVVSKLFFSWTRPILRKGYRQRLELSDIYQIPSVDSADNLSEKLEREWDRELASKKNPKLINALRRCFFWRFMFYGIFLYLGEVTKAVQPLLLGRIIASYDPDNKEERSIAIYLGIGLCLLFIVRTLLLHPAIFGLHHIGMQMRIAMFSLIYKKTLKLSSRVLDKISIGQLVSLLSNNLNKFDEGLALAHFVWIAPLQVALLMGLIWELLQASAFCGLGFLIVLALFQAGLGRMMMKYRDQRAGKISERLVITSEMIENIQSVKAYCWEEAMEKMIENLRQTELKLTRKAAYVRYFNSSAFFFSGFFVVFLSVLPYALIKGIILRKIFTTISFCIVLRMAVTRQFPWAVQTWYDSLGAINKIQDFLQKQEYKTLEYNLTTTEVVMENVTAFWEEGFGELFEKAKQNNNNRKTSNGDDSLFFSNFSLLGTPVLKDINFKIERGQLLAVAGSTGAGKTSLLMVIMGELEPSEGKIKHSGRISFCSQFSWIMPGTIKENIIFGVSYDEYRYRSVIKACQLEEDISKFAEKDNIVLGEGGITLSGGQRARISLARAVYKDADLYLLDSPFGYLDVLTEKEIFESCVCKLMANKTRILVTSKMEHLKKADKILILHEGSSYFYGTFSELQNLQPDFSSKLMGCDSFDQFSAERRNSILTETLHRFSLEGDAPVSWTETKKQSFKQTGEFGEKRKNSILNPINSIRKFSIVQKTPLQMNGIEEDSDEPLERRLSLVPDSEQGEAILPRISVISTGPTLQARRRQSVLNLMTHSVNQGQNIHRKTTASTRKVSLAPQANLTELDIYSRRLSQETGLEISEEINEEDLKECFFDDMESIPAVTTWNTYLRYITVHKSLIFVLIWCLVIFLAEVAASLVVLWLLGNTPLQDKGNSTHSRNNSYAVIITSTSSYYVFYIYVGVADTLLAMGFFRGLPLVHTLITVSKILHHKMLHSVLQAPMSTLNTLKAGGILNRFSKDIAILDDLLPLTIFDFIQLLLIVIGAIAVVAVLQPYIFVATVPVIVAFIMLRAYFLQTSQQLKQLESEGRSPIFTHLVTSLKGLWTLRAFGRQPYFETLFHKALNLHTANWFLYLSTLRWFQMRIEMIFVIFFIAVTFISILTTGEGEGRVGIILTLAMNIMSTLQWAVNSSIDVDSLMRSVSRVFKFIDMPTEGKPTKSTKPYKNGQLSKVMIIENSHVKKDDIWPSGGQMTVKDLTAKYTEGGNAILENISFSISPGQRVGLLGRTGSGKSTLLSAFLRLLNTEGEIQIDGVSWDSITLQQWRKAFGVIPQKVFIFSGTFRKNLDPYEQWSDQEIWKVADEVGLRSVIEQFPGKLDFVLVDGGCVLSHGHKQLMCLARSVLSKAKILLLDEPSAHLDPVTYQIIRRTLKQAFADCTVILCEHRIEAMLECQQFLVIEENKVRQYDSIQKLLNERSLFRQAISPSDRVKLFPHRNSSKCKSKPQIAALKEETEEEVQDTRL

Regarding `O=C(COc1ccc2ccccc2c1)NN=Cc1cc(Br)c(O)c(Br)c1O` [AceH-401], in series [1], the “% inhibition at 50 μM” value is reported as 84% and the negative logarithm of the Ki (pKi) was 4.68.

As for `O=C(COc1ccc2ccccc2c1)NN=Cc1cc(Br)c(O)c(Br)c1` [AceH-402], in series [1], the “% inhibition at 50 μM” value is on record as 86% and the pKi is 4.77.

Take `O=C(O)c1ccc(/C=C2\SC(=S)N(c3cccc(C(F)(F)F)c3)C2=O)cc1` [CFTRinh-172]: the pIC50 in series [2] is 5.52 to 6.52.

For the compound `O=S(=O)(O)c1cc(N=C=S)ccc1C=Cc1ccc(N=C=S)cc1S(=O)(=O)O` [DIDS], the “inhibition of the (CFTR-independent) hyperpolarization produced by low Cl−” value in series [3] was “partial inhibition”.

`COc1c(Br)cc(C=NNC(=O)CNc2ccc3ccccc3c2)c(O)c1Br` [GlyH-103]: in series [1], the “% inhibition at 50 μM” value is 56% and the pKi is 4.70.

`CC(=NNC(=O)CNc1ccc2ccccc2c1)c1cc(Br)c(O)c(Br)c1` [GlyH-109] showed a pKi in series [1] of 5.33.

Turning to `O=C(CNc1ccc(Cl)cc1)NN=Cc1cc(Br)c(O)c(Br)c1` [GlyH-114], in series [1], the pKi was 5.30.

As to `O=C(CNc1ccc(Cl)cc1)NN=Cc1cc(Br)c(O)c(Br)c1O` [GlyH-115], the negative logarithm of the Ki (pKi) in series [1] is 5.17.

`Cc1ccc(NCC(=O)NN=Cc2cc(Br)c(O)c(Br)c2O)cc1` [GlyH-116] gave a pKi in series [1] of 5.00.

`Cc1ccccc1NCC(=O)NN=Cc1cc(Br)c(O)c(Br)c1O` [GlyH-117] gave a pKi in series [1] of 4.30 to 4.60.

As for `O=C(CNc1cccc2ccccc12)NN=Cc1ccc(O)c(Br)c1` [GlyH-118], in series [1], the pKi was 4.30 to 4.60.

Consider `O=C(CNc1ccc2ccccc2c1)NN=Cc1ccc(Br)cc1` [GlyH-120], for which the pKi in series [1] is 4.30 to 4.60.

`O=C(CNc1ccc(Cl)cc1)NN=Cc1ccc(O)cc1O` [GlyH-123]: the pKi in series [1] was 4.30 to 4.60.

In series [1], `O=C(CNc1ccc2cc3ccccc3cc2c1)NN=Cc1cc(Br)c(O)c(Br)c1O` [GlyH-124] gave a negative logarithm of the Ki (pKi) of 4.30 to 4.60.

With `O=C(CNc1ccc2cc3ccccc3cc2c1)NN=Cc1cc(Br)c(O)c(Br)c1` [GlyH-125], in series [1], the pKi is 4.30 to 4.60.

Take `O=C(CNc1ccc2ccccc2c1)NNC(=O)c1cc(Br)c(O)c(Br)c1` [GlyH-202, 3,5-Dibromo-4-hydroxy-[2-(2-naphthalenamine)aceto] Benzoic Acid Hydrazide]: in series [1], the “% inhibition at 50 μM” value came to 57% and the negative logarithm of the Ki (pKi) was 4.66.

For the compound `CC(=NNC(=O)C(=O)Nc1ccc2ccccc2c1)c1cc(Br)c(O)c(Br)c1O` [OxaH-112], in series [1], the pKi is 5.52.

For the compound `O=C(NN=Cc1cc(Br)c(O)c(Br)c1O)C(=O)Nc1ccc2ccccc2c1` [OxaH-203], the negative-log Ki (pKi) in series [1] is under 4.30.

In turn, `O=C(NNC(=O)c1cc(Br)c(O)c(Br)c1)C(=O)Nc1ccc2ccccc2c1` [OxaH-204] had a negative logarithm of the Ki (pKi) in series [1] of under 4.30.

Consider `O=C(NNCc1cc(Br)c(O)c(Br)c1O)C(=O)Nc1ccc2ccccc2c1` [OxaH-303], for which, in series [1], the “% inhibition at 50 μM” value is recorded as 70% and the pKi was 5.00.

Turning to `O=C(NNCc1cc(Br)c(O)c(Br)c1)C(=O)Nc1ccc2ccccc2c1` [OxaH-304], in series [1], the “% inhibition at 50 μM” value is on record as 78% and the negative-log Ki (pKi) is 4.92.

`COc1ccc(CCN(C)CCCC(C#N)(c2ccc(OC)c(OC)c2)C(C)C)cc1OC` (stereo not shown) [verapamil]: in series [4], the “increase of rhodamine 123 incorporation” value is “greater than fivefold”.

A word on the % inhibition: it is the percentage by which the read-out fell short of the control. By pKi is commonly meant the Ki on a negative log10 scale, so that one unit is a factor of ten. Higher therefore signals a low Ki.
